Reference: patent US8685974B2 (Bayer CropScience AG, priority 2009, dated 2014)
Like-named read-outs stand apart in the source and are kept apart here. Marks after values point to notes of the source that are not given here.

Key:
Alternaria solani = test: Alternaria test (tomato) / protective; format: in vivo; conditions: 500 ppm active compound, protective spray, evaluated 7 days after inoculation
Experimental: Alternaria Test (Tomato)/Protective
Solvent: 49 parts by weight of N,N-dimethylformamide
Emulsifier: 1 part by weight of alkylaryl polyglycol ether
To produce a suitable preparation of active compound, 1 part by weight of active compound is mixed with the stated amounts of solvent and emulsifier, and the concentrate is diluted with water to the desired concentration.
To test for protective activity, young tomato plants are sprayed with the preparation of active compound at the stated application rate. […] The plants then remain at 96% rel. atmospheric humidity and a temperature of 20° C.
Evaluation is carried out 7 days after the inoculation. 0% means an efficacy which corresponds to that of the control, whereas an efficacy of 100% means that no infection is observed.

Fusarium graminearum = format: cell-based; conditions: 50 μM; for % Inhibition of DON/AcDON at 50 μM: 7 days at 28° C.
Pyrenophora teres = test: In vivo test on Pyrenophora teres (barley net blotch); conditions: dose of 500 ppm; barley plants; grading 12 days after contamination
Experimental: In Vivo Test on Pyrenophora teres (Barley Net Blotch)
The active ingredients tested are prepared by homogenization in a mixture of acetone/Tween/DMSO, then diluted with water to obtain the desired active material concentration.
Barley plants (Plaisant variety), sown on a 50/50 peat soil-pozzolana substrate in starter cups and grown at 12° C., are treated at the 1-leaf stage (10 cm tall) by spraying with the active ingredient prepared as described above.
Plants, used as controls, are treated with an aqueous solution not containing the active material.
After 24 hours, the plants are contaminated by spraying them with an aqueous suspension of Pyrenophora teres spores (12,000 spores per ml). The spores are collected from a 12-day-old culture. The contaminated barley plants are incubated for 24 hours at about 20° C. and at 100% relative humidity, and then for 12 days at 80% relative humidity.
Grading is carried out 12 days after the contamination, in comparison with the control plants.

Structure (SMILES) | efficacy (Alternaria solani) | % Inhibition of fungal growth at 50 μM (Fusarium graminearum) | % Inhibition of DON/AcDON at 50 μM (Fusarium graminearum) | log p (pH 2.3) | protection (Pyrenophora teres) | log p (pH 2.7)
CCC(C)n1cc(-c2ccnc(NC3COC3)n2)c(-c2ccc(Cl)s2)n1 (stereo not shown) [Example 194] | 95% | 90% | 99% | 3.09^[a] | 100% | –
COCC(=O)Nc1cc(-c2cn(C)nc2-c2ccc(Cl)s2)ccn1 [Example 276] | 90% | 98% | 98% | – | 80% | 2.4^[b]
CCC(C)n1cc(-c2ccnc(NC(=O)[C@H](C)O)c2)c(-c2ccc(Cl)s2)n1 (stereo partly shown) [Example 204] | 80% | 56% | 95% | – | 80% | 3.13^[b]
FC(F)Cn1cc(-c2ccncc2)c(-c2ccc(Cl)s2)n1 [Example 363] | 100% | 99% | 99% | – | 90% | 1.61^[b]
CC(C)n1cc(-c2ccnc(NC(=O)CC3CC3)c2)c(-c2ccc(Cl)s2)n1 [Example 250] | 90% | 29% | 99% | – | 100% | 3.37^[b]
CCC(C)n1cc(-c2ccnc(NC(=O)COC)c2)c(-c2ccc(Cl)s2)n1 (stereo not shown) [Example 223] | 95% | 79% | 99% | – | 95% | 3.68^[b]
N#CCCn1cc(-c2ccncc2)c(-c2ccc(Br)s2)n1 [Example 350] | 80% | 92% | 99% | – | 90% | 1.42^[b]
CCC(C)n1cc(-c2ccnc(NC(=O)C3CCC3)c2)c(-c2ccc(Cl)s2)n1 (stereo not shown) [Example 240] | 95% | 37% | 99% | – | 90% | 3.81^[b]
CCC(C)C(=O)Nc1cc(-c2cn(C(C)CC)nc2-c2ccc(Cl)s2)ccn1 (stereo not shown) [Example 228] | 70% | 49% | 92% | – | 90% | 4.05^[b]
CCC(C)n1cc(-c2ccnc(NC(=O)CC(C)C)c2)c(-c2ccc(Cl)s2)n1 (stereo not shown) [Example 235] | 95% | 0% | 86% | – | 95% | 4.08^[b]
CC(C)n1cc(-c2ccnc(NC(=O)C(C)(C)C)c2)c(-c2ccc(Cl)s2)n1 [Example 233] | 90% | – | – | – | 90% | 3.87^[b]
N#CCCn1cc(-c2ccncc2)c(-c2ccc(F)s2)n1 [Example 340] | 94% | 91% | 98% | – | 70% | 1.12^[b]
CC(C)CC(=O)Nc1cc(-c2cn(C)nc2-c2ccc(Cl)s2)ccn1 [Example 270] | 95% | 49% | 98% | – | 95% | 2.75^[b]
CCOCCn1cc(-c2ccncc2)c(-c2ccc(Cl)s2)n1 [Example 364] | 100% | 100% | 99% | – | 70% | 1.69^[b]
CC(=O)Nc1cc(-c2cn(/C=C/F)nc2-c2ccc(Cl)s2)ccn1 [Example 293] | 80% | 32% | 100% | – | 90% | 2.52^[b]
CCC(C)n1cc(-c2ccnc(NC(=O)Cc3ccccc3)c2)c(-c2ccc(Cl)s2)n1 (stereo not shown) [Example 224] | 80% | – | – | – | 95% | 4.35^[b]
CC(C)n1cc(-c2ccnc(NC(=O)C(C)(C)O)c2)c(-c2ccc(Cl)s2)n1 [Example 211] | 90% | – | – | – | 95% | 3.17^[b]
CCC(C)n1cc(-c2ccnc(NC(=O)CC3CC3)c2)c(-c2ccc(Cl)s2)n1 (stereo not shown) [Example 229] | 95% | 82% | 98% | – | 90% | 3.81^[b]
CCn1cc(-c2ccnc(NC(=O)c3ccsc3)c2)c(-c2ccc(Cl)s2)n1 [Example 254] | 70% | – | – | – | 90% | 3.29^[b]
CCn1cc(-c2ccnc(NC(=O)COC)c2)c(-c2ccc(Cl)s2)n1 [Example 261] | 90% | 96% | 98% | – | 90% | 2.78^[b]
Cc1ccc(-c2nn(C(C)C)cc2-c2ccncc2)s1 [Example 199] | 89% | 100% | 99% | – | 95% | 1.5^[b]
CC(=O)N(C(C)=O)c1cc(-c2cn(C)nc2-c2ccc(Cl)s2)ccn1 [Example 303] | 95% | 83% | 100% | – | 70% | 2.52^[b]
CC(C)n1cc(-c2ccnc(NC(=O)[C@H](C)O)c2)c(-c2ccc(Cl)s2)n1 [Example 205] | 90% | 84% | 98% | – | 95% | 2.75^[b]
Cn1cc(-c2ccnc(NC(=O)c3ccsc3)c2)c(-c2ccc(Cl)s2)n1 [Example 282] | 80% | – | – | – | 70% | 2.88^[b]
CCC(C)n1cc(-c2ccnc(NC(=O)N(C)C)c2)c(-c2ccc(Cl)s2)n1 (stereo not shown) [Example 227] | 80% | 100% | 99% | – | 95% | 2.19^[b]
CC(=O)N(C(C)=O)c1cc(-c2cnn(/C=C/F)c2-c2ccc(Cl)s2)ccn1 [Example 291] | 90% | 18% | 100% | – | 95% | 3.39^[b]
CC(=O)N(C(C)=O)c1cc(-c2cn(/C=C/F)nc2-c2ccc(Cl)s2)ccn1 [Example 297] | 90% | 0% | 100% | – | 80% | 3.09^[b]
CCn1cc(-c2ccnc(NC(=O)CC3CC3)c2)c(-c2ccc(Cl)s2)n1 [Example 253] | 95% | 100% | 99% | – | 100% | 2.94^[b]
CCOC(=O)Nc1cc(-c2cn(C(C)CC)nc2-c2ccc(Cl)s2)ccn1 (stereo not shown) [Example 236] | 80% | – | – | – | 95% | 3.92^[b]
CCn1cc(-c2ccnc(NC(=O)C(C)(C)C)c2)c(-c2ccc(Cl)s2)n1 [Example 255] | 90% | – | – | – | 100% | 3.37^[b]
